The record followed here is PubChem BioAssay (NCI).

Assay in all cases: NCI-60 cell line screen, 48 h
For assay [1], the system named is 786-0 renal.
Assay [2] deals with BT-549 breast.
Assay [3] relates to DU-145 prostate.
The test system of assay [4] is HCT-15 colon.
The subject of assay [5] is MCF7 breast.
In assay [6] the test system is MDA-MB-231 breast.
Assay [7] has as its system MDA-N.
The test system of assay [8] is MOLT-4 leukemia.
For assay [9], the system named is SF-295 CNS.
Assay [10] deals with HOP-92 NSCLC.
Assay [11] concerns K-562 leukemia.

Molecules are shown by their SMILES.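 Values below derive from 48-hour exposures of cells grown in 96-well plates, with endpoints linearly interpolated between the two concentrations bracketing the appropriate inhibition level. GI50 = concentration required for 50% inhibition of growth. TGI is the concentration that stops growth completely.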 Where only a bound is given, the exact number is not on record here.

Regarding `Cc1cnc2c(c1)C(=O)N(c1ccc(Br)cc1)S2(=O)=O`, the TGI in assay [1], in assay [2], in [3], in assay [4], in [5] and in assay [6] was > 100 µM each time. Further, the TGI in assay [7], in assay [8] and in assay [9] was > 100 µM each time.

Regarding `O=[N+]([O-])c1ccc(C2NC(=S)NC3c4cc([N+](=O)[O-])ccc4CCCC23)cc1` (stereo not given), the TGI in [1] is > 100 µM; in [2], > 100 µM; in [3], > 100 µM; in assay [4] it was > 100 µM; in assay [10], 45.5 µM; in assay [11], > 100 µM. For the same compound, the TGI in assay [5], in [6], in assay [8] and in assay [9] was > 100 µM each time.

In the case of `Cc1cc2nc3c(C#N)c4c(c(Cl)n3c2cc1C)CCC4`, the TGI in assay [1] is 29.5 µM; in [2], 49 µM; in assay [4], 37.1 µM; in [10], 95.5 µM; in assay [6], 35.1 µM; in [8], > 100 µM. For the same compound, the TGI in [9] was > 100 µM.

For `COc1ccc(OC)c(CCc2ccccc2CC(=O)O)c1`, the TGI in assay [1], in [4], in [10], in assay [11], in [8] and in assay [9] was > 100 µM throughout.

Take `CCCc1cn2c(/C=N/N=C(N)N)c(-c3ccc([N+](=O)[O-])cc3)nc2s1`: the TGI in assay [1] came out at 1.97 µM; in assay [4] it was 2.3 µM; in assay [10], 74 µM; in assay [6], 3.51 µM; in assay [8], 0.441 µM; in assay [9] it was 2.16 µM.

As to `CC1=NC(=O)CNN1C1=NNC2(C(=O)N1)c1ccccc1-c1ccccc12`, the TGI in assay [1], in assay [2], in [3], in [4], in assay [10] and in assay [11] was > 100 µM throughout. For the same compound, the TGI in assay [5], in [6], in assay [7] and in assay [9] was > 100 µM throughout.

Regarding `O=C(OCC1CC(C2(O)CCCCC2)C(=O)O1)c1ccccc1` (stereo not given), the TGI in assay [1], in [2], in assay [3], in [4], in assay [10] and in assay [11] was > 100 µM in each case. Moreover, the TGI in assay [5], in assay [6], in assay [8] and in assay [9] was > 100 µM throughout.

With `O=C(/C=C/c1ccc(Cl)cc1)c1nc2ccccc2[nH]1`, the TGI in assay [1] is 29.6 µM; in assay [2] it was > 100 µM; in assay [3], 33.1 µM; in assay [4], 61.4 µM; in assay [10] it was > 100 µM; in [11] it was 30.7 µM. Besides, the values for the TGI in assay [5], in [6] and in [9] were 9.04 µM, > 100 µM and > 100 µM, respectively.

On to `COc1cc(Cn2c3ccccc3c3cc(C)cc(OC)c32)cc2c1[nH]c1ccccc12`, for which the TGI in assay [1], in assay [4], in assay [10], in assay [11] and in assay [8] was > 25 µM throughout. Besides, the GI50 in assay [4] was 16.8 µM; in assay [10] it was 5.39 µM; in assay [11], 9.7 µM; in [8], 8.51 µM.

For `C=C1C(=O)O[C@H]2C1C[C@H](O)/C(C)=C/CC[C@@]1(C)O[C@H]21` (stereo not given in full), the TGI was 32.8 µM in assay [1]; 49.5 µM in [3]; 31.1 µM in [4]; 33 µM in assay [10]; > 100 µM in assay [11]; 27.6 µM in assay [5]. In addition, the TGI in assay [6] came to 38.4 µM; in [7], 30.3 µM; in assay [9], 82.5 µM.

As for `CC(=O)OC1CC2C(=O)CC1(C)C2(C)C` (stereo not given), the TGI in assay [1], in [3], in [4], in [10], in assay [11] and in assay [5] was > 100 µM each time. Moreover, the TGI in assay [6], in [7], in assay [8] and in [9] was > 100 µM throughout.

`COc1cc2c(c(OC)c1)C(=O)C(=O)C(CC1(C)OCCCO1)=C2`: the TGI in assay [1] was 22 µM; in assay [4], 17 µM; in assay [10], 4.41 µM; in assay [11] it was 6.7 µM; in [8], > 29.9 µM; in [9], 27.1 µM.

Consider `N#CCCN(c1ccc(C=Nc2ccc(C(=O)O)cc2)cc1)S(=O)(=O)c1ccccc1`, for which the TGI in assay [1], in [4], in assay [10], in assay [11], in assay [8] and in assay [9] was > 100 µM in each case.

Take `C[n+]1ccc2/c(=C\C#N)c3ccccc3n21`: the TGI was > 100 µM in [1]; 52.8 µM in assay [2]; 46.4 µM in assay [3]; > 100 µM in assay [4]; 63.2 µM in assay [10]; > 100 µM in [11]. Also, the TGI was 65 µM in [5], > 100 µM in assay [7], > 100 µM in assay [8] and > 100 µM in [9].

As to `O=C(O)c1ccc(Nc2nc3ccc(C(F)(F)F)cc3nc2-c2ccccc2)cc1`, the TGI in [1] was > 100 µM; in [3], > 10 µM; in assay [4], 57.3 µM; in assay [11], > 100 µM; in assay [5] it was > 100 µM; in assay [7] it was > 100 µM. Moreover, the TGI in assay [8] and in [9] was > 100 µM each time.
